# Columns and labels:
# [1] = biological target: T1, HpLCYE (Haematococcus lacustris, UniProt A0A0K1HSD1); test: E. coli complementation, UPLC product profile; type: cell-based; details: 30 then 25 °C
# T1 construct: full ORF, 575 aa, codon-optimised, expressed from pACCRT-EIB plasmid in carotenoid-accumulating E. coli DH5alpha; no tag told
# T1 sequence (A0A0K1HSD1 1-575): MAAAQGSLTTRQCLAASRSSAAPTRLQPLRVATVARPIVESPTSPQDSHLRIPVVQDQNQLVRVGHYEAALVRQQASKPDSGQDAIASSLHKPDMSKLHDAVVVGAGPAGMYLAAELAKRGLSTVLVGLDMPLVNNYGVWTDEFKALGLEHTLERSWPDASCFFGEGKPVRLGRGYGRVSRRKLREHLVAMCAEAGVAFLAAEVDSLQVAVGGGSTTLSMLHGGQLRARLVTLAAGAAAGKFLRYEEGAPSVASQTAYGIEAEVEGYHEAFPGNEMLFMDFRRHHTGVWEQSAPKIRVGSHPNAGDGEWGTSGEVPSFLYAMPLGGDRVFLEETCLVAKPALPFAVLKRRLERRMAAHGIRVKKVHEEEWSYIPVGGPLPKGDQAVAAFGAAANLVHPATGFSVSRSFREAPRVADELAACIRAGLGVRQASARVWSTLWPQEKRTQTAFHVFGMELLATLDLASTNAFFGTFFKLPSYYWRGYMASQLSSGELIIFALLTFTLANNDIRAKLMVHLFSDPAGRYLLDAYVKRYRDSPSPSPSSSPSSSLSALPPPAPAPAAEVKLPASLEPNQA
# [2] = biological target: T2, HpLCYB (Haematococcus lacustris, UniProt A0A1S6KDX2); test: E. coli complementation, UPLC product profile; type: cell-based; details: lycopene-accumulating E. coli DH5alpha (pACCRT-EIB-B), 30 then 25 °C; product beta-carotene
# T2 construct: full ORF, 568 aa, expressed from pACCRT-EIB plasmid in carotenoid-accumulating E. coli DH5alpha; no tag told
# T2 sequence (A0A1S6KDX2 1-568): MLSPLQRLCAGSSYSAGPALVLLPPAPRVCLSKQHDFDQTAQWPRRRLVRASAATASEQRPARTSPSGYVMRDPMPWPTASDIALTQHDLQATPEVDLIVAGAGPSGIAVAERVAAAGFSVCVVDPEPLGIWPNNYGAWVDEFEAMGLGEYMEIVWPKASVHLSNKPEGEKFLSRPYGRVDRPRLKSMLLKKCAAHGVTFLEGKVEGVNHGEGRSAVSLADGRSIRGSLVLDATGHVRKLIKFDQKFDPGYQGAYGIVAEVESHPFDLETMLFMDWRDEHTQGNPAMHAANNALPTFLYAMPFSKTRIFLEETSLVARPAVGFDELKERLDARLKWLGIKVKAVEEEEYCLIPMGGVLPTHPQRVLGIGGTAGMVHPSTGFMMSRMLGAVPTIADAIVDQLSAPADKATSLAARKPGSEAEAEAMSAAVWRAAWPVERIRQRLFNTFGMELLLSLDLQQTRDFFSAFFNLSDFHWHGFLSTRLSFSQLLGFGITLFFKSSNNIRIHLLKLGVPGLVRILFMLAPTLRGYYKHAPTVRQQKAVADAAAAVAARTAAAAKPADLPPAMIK
# [3] = biological target: HpLCYB (purified) (Haematococcus lacustris, UniProt A0A1S6KDX2); test: in vitro cyclase assay, UPLC; type: biochemical; details: 50 mM gamma-carotene as printed, 0.1 M Tris-HCl pH 7.0, 10% glycerol, 5 mM DTT, 1 mM EDTA, 30 °C, 1 h; product beta-carotene
compound,measurement,setting,value
CC(C)=CCC/C(C)=C/C=C/C(C)=C/C=C/C(C)=C/C=C/C=C(C)/C=C/C=C(\C)CC/C=C(\C)CCC=C(C)C [neurosporene],"E. coli complementation, UPLC product profile","[1]; neurosporene-accumulating E. coli DH5alpha (pACCRT-EIBneurE), product alpha-zeacarotene","neurosporene produced by pACCRT-EIBneur was probably transformed into α-, and β-zeacarotene, respectively"
CC(C)=CCC/C(C)=C/C=C/C(C)=C/C=C/C(C)=C/C=C/C=C(C)/C=C/C=C(C)/C=C/C=C(\C)CCC=C(C)C [lycopene],"E. coli complementation, UPLC product profile","[1]; lycopene-accumulating E. coli DH5alpha (pACCRT-EIB-E), product delta-carotene",HpLCYE cyclized only one end of lycopene to synthesize δ-carotene
same,"E. coli complementation, UPLC product profile",[2],HpLCYB could cyclize both ends of lycopene to form β-carotene
CC(C)=CCC/C(C)=C/C=C/C(C)=C/C=C/C(C)=C/C=C/C=C(C)/C=C/C=C(C)/C=C/C1=C(C)CCCC1(C)C [γ-carotene],"in vitro cyclase assay, UPLC",[3],HpLCYB further cyclized γ-carotene to form β-carotene

# From article PMC5539077, “Functional Characterization of a Missing Branch Component in Haematococcus pluvialis for Control of Algal Carotenoid Biosynthesis” (Frontiers in Plant Science, 2017)
